According to PubChem BioAssay (NCI):
“And” between values parts separate entries of the source, which are not always exact repeats. Identical values can stand only once.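 Grown in 96-well plates, cells were treated for 48 hours with each compound at five concentrations. Insufficient inhibition: endpoint recorded as highest concentration tested. Here, GI50 denotes the concentration required for 50% inhibition of growth. TGI denotes the concentration required for complete inhibition of growth.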

Each molecule was assayed on RPMI-8226 leukemia (assay: inhibition of tumour cell growth, NCI panel, 48 h).
For COc1ccc(C[N+]23C(CC[C@H]2c2ccccc2)CC[C@H]3c2ccccc2)cc1 (stereo partly drawn), the TGI was 27 µM. With O=C1c2cc3c(cc2CC12Cc1cc4c(cc1C2=O)CCC4)CCCC3 (stereo not drawn) the TGI was > 100 µM. Molecule CC(=O)OCC1OC(Nc2ncc(-c3ccc(C)cc3)s2)C(OC(C)=O)C(OC(C)=O)C1OC(C)=O (stereo not drawn) has a TGI of 65.4 µM.

What follows are molecules tested on MDA-N (assay: inhibition of tumour cell growth, NCI panel, 48 h).
CC(=O)c1sc2c(c1OC(=O)c1cccs1)c(=O)n(-c1ccccc1)c(=S)n2-c1ccccc1 showed a TGI of 19.2 µM. For C[C@]12CCC(=O)C=C1CC[C@@H]1C2CC[C@]2(C)c3nn(-c4ccc(F)cc4)nc3CC12 (stereo partly drawn), the TGI was > 100 µM. For CN(C)C(=O)NCCN1CCCCCc2ccccc21, the TGI was > 100 µM. In the case of CC(=O)Oc1ccccc1-c1cc2ccccc2oc1=O, the TGI is reported as > 100 µM. In the case of CCOC(=O)CC1CCN(C(=O)c2ccccc2)C2Cc3c([nH]c4ccccc34)C12C[N+](=O)[O-] (stereo not drawn), the TGI is reported as > 100 µM. For CC12CCC(C(=O)OC1=O)C2(C)C (stereo not drawn), the TGI was > 100 µM. In the case of CC(C)CC1[C@@H](OCc2ccccc2)COS(=O)N1Cc1ccccc1 (stereo partly drawn), the TGI is reported as > 100 µM. With CNC(=S)N/N=C(C)\C(=N/NC(=S)NC)c1ccccc1 the TGI was > 100 µM. COC1=C(Br)[C@H](O)[C@@]2(C=C1Br)CC(C(=O)NCCCCCN=C(N)N)=NO2 was tested, and the TGI was > 10 µM. CC1(C#N)CC(C)(C)C(/C=C2/CC(C)(C)C(/C=C3/OC(=N)CC3(C)C)=N2)=N1 (stereo not drawn) was tested, and the TGI was 92.1 µM. Molecule COc1ccc(C[N+]23C(CC[C@H]2c2ccccc2)CC[C@H]3c2ccccc2)cc1 (stereo partly drawn) has a TGI of 65.4 µM. In the case of O=C1c2cc3c(cc2CC12Cc1cc4c(cc1C2=O)CCC4)CCCC3 (stereo not drawn), the TGI is reported as > 100 µM. CCOC(=O)CC1c2ccc(O)cc2OC(=O)C1c1ccc([N+](=O)[O-])cc1 (stereo not drawn) was tested, and the TGI was 93.5 µM. In the case of CCN(CC)/C(Cl)=C(Cl)\C(=C1\Nc2ccc(OC)cc21)[N+](=O)[O-], the TGI is reported as > 100 µM.

These molecules were tested on IGROV1 ovarian (assay: inhibition of tumour cell growth, NCI panel, 48 h).
With Cc1ccc2c(c1CCCC(C)(C)O)C(=O)C(=O)C(C(C)C)=C2O the TGI was > 100 µM. Molecule CC(=O)c1sc2c(c1OC(=O)c1cccs1)c(=O)n(-c1ccccc1)c(=S)n2-c1ccccc1 has a TGI of 35.4 µM. For C[C@]12CCC(=O)C=C1CC[C@@H]1C2CC[C@]2(C)c3nn(-c4ccc(F)cc4)nc3CC12 (stereo partly drawn), the TGI was > 100 µM. For CN(C)C(=O)NCCN1CCCCCc2ccccc21, the TGI was > 100 µM. In the case of O=C1C(Cl)C(c2ccccc2)N1n1cnc2ccccc2c1=O (stereo not drawn), the TGI is reported as > 100 µM. For CN(C)C(=O)OCOC(=O)N(C)C, the TGI was > 100 µM. COC(=O)c1ccc(/C=C2\N=C(C)OC2=O)cc1 was tested, and the TGI was > 100 µM. CCOC(=O)c1nc2c(Cl)c3ncccc3cc2[nH]c1=O was tested, and the TGI was > 100 µM. CCOC(=O)C1=C(Nc2cccc(OC)c2)OCC1=O was tested, and the TGI was > 100 µM. O=C1NC(=O)C(CCO)(c2ccccc2)C(=O)N1 was tested, and the TGI was > 100 µM. Molecule CO[C@H]1[C@@H](O)[C@@H](C)O[C@@H](O[C@H]2CC[C@@]3(C)[C@H](CC[C@@H]4[C@@H]3CC[C@]3(C)[C@@H](C5=CC(=O)OC5)[C@@H](OC(C)=O)C[C@]43O)C2)[C@@H]1O has a TGI of 0.772 µM. With Cc1cn(C2CC(ON3C(=O)c4ccccc4C3=O)C(CO)O2)c(=O)[nH]c1=O (stereo not drawn) the TGI was > 10 µM. With C=CCn1c(=O)n(CC=C)c(=O)n(CC=C)c1=O the TGI was > 100 µM. In the case of CCCCN1C=CN2c3nc4cc(C)c(C)cc4n3C(C(=O)OC)=C(C(=O)OC)C12 (stereo not drawn), the TGI is reported as > 100 µM. With COC(=O)C(=C/c1ccc(OC)cc1)/C(C(=O)O)=C(/C)c1ccccc1 the TGI was > 100 µM. In the case of C=C1C(=O)O[C@H]2[C@H]1[C@@H](OC(=O)C=C(C)C)CC1=C[C@@H](C[C@@]3(C)O[C@@H]23)OC1=O, the GI50 is reported as 14.2 µM and the TGI is reported as 27 µM and 34.4 µM. CCC1c2[nH]c3ccccc3c2C[C@H]2C(=O)NC(COC(C)(C)C)C(=O)N12 (stereo partly drawn) was tested, and the TGI was > 100 µM. With CCOC(=O)CC1CCN(C(=O)c2ccccc2)C2Cc3c([nH]c4ccccc34)C12C[N+](=O)[O-] (stereo not drawn) the TGI was > 100 µM. CC12CCC(C(=O)OC1=O)C2(C)C (stereo not drawn) was tested, and the TGI was > 100 µM. In the case of CCOC(=O)C(N=Nc1ccc(S(N)(=O)=O)cc1)C(C)=O (stereo not drawn), the TGI is reported as > 100 µM. With Cc1ccc(C2CC(c3ccco3)=NN2c2ccccc2)o1 (stereo not drawn) the TGI was > 100 µM. With C/C(=C1/CCCC2(N=NCC2c2ccccc2)C1=O)c1ccccc1 (stereo not drawn) the TGI was > 100 µM. CCN1CCN(c2ccc(Nc3ccnc4ccc5nn(C)nc5c34)cc2)CC1 was tested, and the TGI was 39.5 µM. For CC(C)CC1[C@@H](OCc2ccccc2)COS(=O)N1Cc1ccccc1 (stereo partly drawn), the TGI was > 100 µM. For OCC1OC(n2cnc3c2NC=NC[C@H]3O)C(O)C1O (stereo partly drawn), the TGI was > 450 µM. With CNC(=S)N/N=C(C)\C(=N/NC(=S)NC)c1ccccc1 the TGI was > 100 µM. For O=[N+]([O-])c1ccc(-n2nnc(C3=NCCCN3)c2-c2ccc(Cl)cc2)cc1, the TGI was > 100 µM. COc1cc2c(cc1OC)C(O)[C@H](Br)C(C)(C)O2 (stereo partly drawn) was tested, and the TGI was > 100 µM. For COC1=C(Br)[C@H](O)[C@@]2(C=C1Br)CC(C(=O)NCCCCCN=C(N)N)=NO2, the TGI was > 10 µM. CCCCCC(C[N+]1(C)CCOCC1)C(=O)/C=C/c1ccccc1 (stereo not drawn) gave a TGI of 40.1 µM. CC1(C#N)CC(C)(C)C(/C=C2/CC(C)(C)C(/C=C3/OC(=N)CC3(C)C)=N2)=N1 (stereo not drawn) was tested, and the TGI was 46.3 µM. Work on COc1ccc(C[N+]23C(CC[C@H]2c2ccccc2)CC[C@H]3c2ccccc2)cc1 (stereo partly drawn) yielded a TGI of 36.5 µM. With O=C1c2cc3c(cc2CC12Cc1cc4c(cc1C2=O)CCC4)CCCC3 (stereo not drawn) the TGI was > 100 µM. CCOC(=O)CC1c2ccc(O)cc2OC(=O)C1c1ccc([N+](=O)[O-])cc1 (stereo not drawn) gave a TGI of 60.5 µM. CC(=O)OCC1OC(Nc2ncc(-c3ccc(C)cc3)s2)C(OC(C)=O)C(OC(C)=O)C1OC(C)=O (stereo not drawn) was tested, and the TGI was > 100 µM.
